This is an account of results in patent US12215389B2, “Compositions for detecting epigenetic modifications” (EXACT SCIENCES CORPORATION, priority 2007, dated 2025).

The subject of this series is methylated gene promoters in plasma DNA. The experiment in a line: Real-time MSP on plasma DNA. Further details: species or system human. Conditions: for % Specificity (all 59 controls), plasma set 1: plasma training set 1; for % Sensitivity adenomas plasma set 2: increased plasma equivalent of DNA per real-time MSP assay / % Specificity (all 89 controls), plasma set 2: increased plasma equivalent of DNA per real-time MSP assay: plasma training set 2. How it is done:
10 ml of blood was obtained per individual using EDTA Vacutainer™ tubes. Individuals with no suspicious findings, adenomas or carcinomas based on colonoscopy were enrolled in the present study. Within 4 hrs from the blood drawing, the plasma fraction was separated from the cell fraction by centrifugation at 1500 g for 15 min (4° C.). The plasma was transferred to new tubes and once again centrifuged (1500 g, 15 min, 4° C.), after which the supernatant was transferred to new tubes and stored at −80° C. until further use. Samples were shipped on dry ice.
DNA isolation from plasma samples (1.2 to 6 ml) was performed using an upscaled phenol-chloroform DNA isolation method using the 15 ml of Heavy Phase lock Gel tubes (PLG tubes) (Eppendorf, cat #0032 005.152) or alternatively the ChargeSwitch® gDNA 1 ml serum kit from Invitrogen (cat #CS11040).
Plasma samples were thawed and 1/10 volume of 10× buffer (240 mM EDTA (pH=8.0), 750 mM NaCl), 1/10 volume of 10% SDS and 5 μl of Proteinase K (20 mg/ml stock solution) per 1 ml of sample (e.g. 15 μl for 3 ml of sample) was added to each plasma sample. This mixture was incubated overnight at 48° C. at constant shaking (200 RPM).
Subsequently the PLG tube was centrifuged at 2500 RCF for 3 min, sample mixture and approximately the same volume of phenol/chloroform (Invitrogen, cat #15593049) were added to it. This solution was briefly vortexed, mixed for 10 min using a tube rocker at room temperature and centrifuged for 5 min at 2500 RCF. In case the retrieved sample volume was ≤4 ml, an equal volume of phenol/chloroform was added. The upper aqueous layer was phenol/chloroform-treated for a second time.
DNA was precipated from the upper aqueous layer by adding 5 μl glycogen, 1/10 volume of 7.5 M Ammonium Acetate and 2-2.5 volumes of cold (−20° C.) 100% ethanol. Tubes were gently inverted and incubated at −20° C. for at least 1 h, followed by a centrifugation step at 17000 RCF for 30 min (4° C.). Ethanol was carefully removed by pipetting. Pellets were washed with 2 ml freshly prepared 70% ethanol, vortexed gently and submitted to a centrifugation step at 17000 RCF for 15 min at 4° C. After careful removal of the remaining ethanol, pellets were air dried and resuspended in 45 μl of LoTE pH 8.0. The isolated DNA is stored at −80° C. until further processing.
The complete content of DNA isolated in above procedure was subjected to sodium bisulfite treatment (BT) using the EZ-96 DNA Methylation kit from Zymo Research (Cat #D5003) performed on a pipetting robot (Tecan Freedom EVOII, Roma, Liha, Mca, Te-Vacs). Briefly, 45 μl of plasma DNA sample was mixed with 5 μl of M-Dilution Buffer (provided in kit) and incubated at 37° C. for 15 min shaking at 1100 RPM. This mixture was further incubated with 100 μl of diluted CT conversion reagent (provided in kit) shaking at 70° C. for 3 hours (protected from light). Subsequently the modified DNA was desalted and desulfonated according to manufacturer's instructions and eluted in either 40 μl or 20 μl of Tris-HCl 1 mM pH8.0, depending on the applied concentration procedure. The eluted material was stored at −80° C. until further processing.
2.4 μl of the modified DNA was added to a PCR mix (total volume 12 μl) containing home-made buffer solution (final concentrations are summarized: 16.6 mM (NH4)2SO4, 67 mM Tris (pH 8.8), 6.7 mM MgCl2, 10 mM β-mercaptoethanol), dNTPs (5 mM; Amersham Biosciences cat #27-2035-02), methylation specific forward primer (6 ng), methylation specific reverse primer (18 ng), molecular beacon (0.16 μM) and Jumpstart DNA Taq polymerase (0.4 units; Sigma Cat #D9307).
A standard curve was included (9.6×10^5—9.6 copies) to determine copy numbers of unknown samples by interpolation of their Ct values to the standard curve.
DNA was isolated following the upscaled phenol-chloroform procedure; subsequently the whole DNA sample was modified as described above.

In the case of “GATA5 (DNA AGTTCGTTTTTAGGTTAGTTTTCGGC; listed as DNA, chemistry not given here)”, the “% Specificity (all 59 controls), plasma set 1” value is given as 97%; the “% Sensitivity adenomas plasma set 2: increased plasma equivalent of DNA per real-time MSP assay” value worked out at 6%; the “% Specificity (all 89 controls), plasma set 2: increased plasma equivalent of DNA per real-time MSP assay” value was 99%.
On to “SFRP1 (DNA TGTAGTTTTCGGAGTTAGTGTCGCGC; listed as DNA, chemistry not given here)”, for which the “% Specificity (all 59 controls), plasma set 1” value was 98%; the “% Sensitivity adenomas plasma set 2: increased plasma equivalent of DNA per real-time MSP assay” value is listed as 2%; the “% Specificity (all 89 controls), plasma set 2: increased plasma equivalent of DNA per real-time MSP assay” value is reported as 96%.
